Assay results taken from patent US10047078B2, “Aminothiazole compounds” (National Health Research Institutes, priority 2016, dated 2018).

Assays:
KIT = KIT (Homo sapiens, UniProt P10721); experiment: SelectScreen biochemical kinase profiling; type: binding
Procedure: (§1) Kinase inhibition data were obtained from SelectScreen® Biochemical Kinase Profiling Service.
(§2) More specifically, test compounds were screened in 160 nL of a 1% DMSO solution in the well of a 384-well plate; kinase/antibody mixtures (8 μL) were diluted to a 2-fold working concentration in an appropriate kinase buffer (3.84 μL) and a 4-fold AlexaFluor® labeled tracer (4 μL) was prepared in the kinase buffer; incubation of test solutions was conducted at room is temperature for 60 minutes; and readout on a fluorescence plate reader was recorded and analyzed.

VEGFR2 = VEGFR2 (Homo sapiens, UniProt P35968); experiment: SelectScreen biochemical kinase profiling; type: binding
Procedure: as §1, §2

PDGFR A = PDGFR A (Homo sapiens, UniProt P16234); experiment: SelectScreen biochemical kinase profiling; type: binding
Procedure: as §1, §2

RET = RET (Homo sapiens, UniProt P07949); experiment: SelectScreen biochemical kinase profiling; type: binding; settings: 100 nM, read-out: Inhibition (% of control) at 100 nM
Procedure: as §1, §2

ABL1 = ABL1 (Homo sapiens, UniProt P00519); experiment: SelectScreen biochemical kinase profiling; type: binding; settings: 100 nM, read-out: Inhibition (% of control) at 100 nM
Procedure: as §1, §2

SRC = SRC (Homo sapiens, UniProt P12931); experiment: SelectScreen biochemical kinase profiling; type: binding
Procedure: as §1, §2

ABL1 T315I = ABL1 T315I (Homo sapiens, UniProt P00519, T315I); experiment: SelectScreen biochemical kinase profiling; type: binding; settings: 100 nM, read-out: Inhibition (% of control) at 100 nM
Procedure: as §1, §2

PDGFR B = PDGFR B (Homo sapiens, UniProt P09619); experiment: SelectScreen biochemical kinase profiling; type: binding
Procedure: as §1, §2

[1] = system: xenografts colo205 nude mice; experiment: In vivo toxicity study, colo205 model
Procedure: Male nude mice (Nu-Fox1^nu) of 8 weeks old were purchased from BioLASCO (Taipei, Taiwan, R.O.C.). Human colorectal Colo205, pancreatic Mia-PaCa 2 tumor cells or MOLM-13, 32D-ITD/D835Y leukemia cells were inoculated subcutaneously at 1×10^6 cells each in the nude mice. […] The tumor cells grow as xenograft tumors and the tumor size reached approximately 200-250 mm^3 in the nude mice ready for dose treatments. Test compounds were dissolved in 20% 2-hydroxypropy-β-cyclodextrin individually for oral gavage administrations to the nude mice. The tumor-bearing mice were treated with test compounds at various doses, 5 times a week for 2 weeks. Tumor sizes were measured by an electronic caliper and calculated with the formula: tumor size=length×width^2/2. Tumor size and animal body weight were measured twice a week before and after the tumor cell inoculation throughout the observation period. Uses of animals and experimental procedures thereof were approved by the Institutional Animal Care and Use Committee (IACUC) of the National Health Research Institutes.
Nine weeks old athymic nu/nu nude mice were administered orally at a once daily dose of 25, 50, 100, or 150 mg/kg on days 1-5 and 8-12.

Colo205 xenografts = experiment: Xenograft efficacy, Colo205 model; type: in vivo; settings: Colo205 xenografts in nude mice; PO 50 mg/kg, 5 times a week for 2 weeks; 50 mg/kg
Procedure: Male nude mice (Nu-Fox1^nu) of 8 weeks old were purchased from BioLASCO (Taipei, Taiwan, R.O.C.). Human colorectal Colo205, pancreatic Mia-PaCa 2 tumor cells or MOLM-13, 32D-ITD/D835Y leukemia cells were inoculated subcutaneously at 1×10^6 cells each in the nude mice. All human cancer cells were detected as free of Mycoplasma spp before they were injected into animals. The tumor cells grow as xenograft tumors and the tumor size reached approximately 200-250 mm^3 in the nude mice ready for dose treatments. Test compounds were dissolved in 20% 2-hydroxypropy-β-cyclodextrin individually for oral gavage administrations to the nude mice. The tumor-bearing mice were treated with test compounds at various doses, 5 times a week for 2 weeks. Tumor sizes were measured by an electronic caliper and calculated with the formula: tumor size=length×width^2/2. Tumor size and animal body weight were measured twice a week before and after the tumor cell inoculation throughout the observation period. Uses of animals and experimental procedures thereof were approved by the Institutional Animal Care and Use Committee (IACUC) of the National Health Research Institutes.

32D-ITD/F691L cells = experiment: MTS cell viability, 32D cells expressing FLT3-ITD mutant; type: cell-based, Murine; settings: Mus musculus, 32D, 72 h, 72-h incubation
Text: (§3) The five leukemic 32D cell lines were purchased from American Type Culture Collection (ATCC, Manassas, Va., USA). Murine pro-B lymphocyte 32D cell lines were stably transfected with expression vectors that encoded human FLT3 containing an ITD mutation (32D-ITD cells), ITD and D835Y (32D-ITD/D835Y cells), ITD and D835V (32D-ITD/D835V cells), ITD and D835F (32D-ITD/D835F cells), and ITD and F691L (32D-ITD/F691L cells) mutations, which lead to constitutive activation of the FLT3 downstream signaling proteins. The cell viability was assessed with the MTS assay described in PLoS One, 2014, 9, e97116. 32D-ITD/D835Y, 32D-ITD/D835V, 32D-ITD/D835F, 32D-ITD/F691L, and 32D-ITD/F691I cells were seeded in 96-well plates at 1×10^4 cells/mL (100 μL per well) for 24-h incubation. Test compounds (at various concentrations in dimethyl sulfoxide (DMSO) were subsequently added to the culture medium for 72-h incubation. The cell viability was determined by the MTS assay (Promega, Madison, Wis., USA).

32D-ITD/D835F cells = experiment: as above; type: cell-based, Murine; settings: 72-h incubation
Text: as §3

32D-ITD/F691I cells = experiment: as above; type: cell-based, Murine; settings: Mus musculus, 32D, 72 h, 72-h incubation
Text: as §3

[2] = 100 nM, read-out: Inhibition (% of control) at 100 nM
[3] = read-out: IC50 value (number in the bracket)

Sequence of PDGFR B (P09619 33-1106): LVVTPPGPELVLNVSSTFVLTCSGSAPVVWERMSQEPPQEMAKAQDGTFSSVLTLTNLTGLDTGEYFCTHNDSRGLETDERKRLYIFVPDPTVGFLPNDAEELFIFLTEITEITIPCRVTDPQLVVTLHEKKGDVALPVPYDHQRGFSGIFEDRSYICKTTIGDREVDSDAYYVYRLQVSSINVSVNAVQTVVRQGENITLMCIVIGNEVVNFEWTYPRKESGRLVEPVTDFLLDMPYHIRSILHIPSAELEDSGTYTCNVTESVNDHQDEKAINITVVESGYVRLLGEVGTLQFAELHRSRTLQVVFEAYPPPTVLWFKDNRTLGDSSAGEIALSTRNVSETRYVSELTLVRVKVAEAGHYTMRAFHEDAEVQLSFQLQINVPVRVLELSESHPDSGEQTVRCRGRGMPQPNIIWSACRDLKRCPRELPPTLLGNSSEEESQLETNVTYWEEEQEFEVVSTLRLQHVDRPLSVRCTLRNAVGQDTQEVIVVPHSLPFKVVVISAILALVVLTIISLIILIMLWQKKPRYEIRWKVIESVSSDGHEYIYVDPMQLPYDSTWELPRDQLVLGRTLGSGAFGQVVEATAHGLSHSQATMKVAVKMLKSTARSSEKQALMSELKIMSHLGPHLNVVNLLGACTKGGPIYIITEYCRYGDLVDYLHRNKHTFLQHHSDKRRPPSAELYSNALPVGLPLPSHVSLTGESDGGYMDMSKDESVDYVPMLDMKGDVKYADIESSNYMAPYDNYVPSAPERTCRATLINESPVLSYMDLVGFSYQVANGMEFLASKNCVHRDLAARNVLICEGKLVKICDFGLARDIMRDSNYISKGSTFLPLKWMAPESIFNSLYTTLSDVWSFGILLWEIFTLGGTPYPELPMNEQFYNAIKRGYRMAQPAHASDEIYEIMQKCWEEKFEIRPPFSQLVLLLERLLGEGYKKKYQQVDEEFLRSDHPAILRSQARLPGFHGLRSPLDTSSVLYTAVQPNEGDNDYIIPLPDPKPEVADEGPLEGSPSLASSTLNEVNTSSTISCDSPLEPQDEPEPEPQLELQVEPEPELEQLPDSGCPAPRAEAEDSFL
Sequence of SRC (P12931 whole entry): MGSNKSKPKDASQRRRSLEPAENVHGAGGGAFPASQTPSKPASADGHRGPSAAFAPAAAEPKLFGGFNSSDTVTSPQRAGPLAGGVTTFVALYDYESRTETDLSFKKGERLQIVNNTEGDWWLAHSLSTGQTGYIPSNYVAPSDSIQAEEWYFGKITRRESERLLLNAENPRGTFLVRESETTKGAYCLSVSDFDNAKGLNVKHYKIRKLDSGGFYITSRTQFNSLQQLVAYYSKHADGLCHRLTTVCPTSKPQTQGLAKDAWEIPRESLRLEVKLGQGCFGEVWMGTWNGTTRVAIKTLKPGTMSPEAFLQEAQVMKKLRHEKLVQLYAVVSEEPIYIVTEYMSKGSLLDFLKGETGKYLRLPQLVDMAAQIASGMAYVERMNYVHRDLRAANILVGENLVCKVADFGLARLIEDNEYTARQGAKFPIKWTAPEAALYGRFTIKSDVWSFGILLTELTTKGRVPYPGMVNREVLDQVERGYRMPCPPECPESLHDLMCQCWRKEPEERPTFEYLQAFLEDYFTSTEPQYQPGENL
Sequence of KIT (P10721 26-976): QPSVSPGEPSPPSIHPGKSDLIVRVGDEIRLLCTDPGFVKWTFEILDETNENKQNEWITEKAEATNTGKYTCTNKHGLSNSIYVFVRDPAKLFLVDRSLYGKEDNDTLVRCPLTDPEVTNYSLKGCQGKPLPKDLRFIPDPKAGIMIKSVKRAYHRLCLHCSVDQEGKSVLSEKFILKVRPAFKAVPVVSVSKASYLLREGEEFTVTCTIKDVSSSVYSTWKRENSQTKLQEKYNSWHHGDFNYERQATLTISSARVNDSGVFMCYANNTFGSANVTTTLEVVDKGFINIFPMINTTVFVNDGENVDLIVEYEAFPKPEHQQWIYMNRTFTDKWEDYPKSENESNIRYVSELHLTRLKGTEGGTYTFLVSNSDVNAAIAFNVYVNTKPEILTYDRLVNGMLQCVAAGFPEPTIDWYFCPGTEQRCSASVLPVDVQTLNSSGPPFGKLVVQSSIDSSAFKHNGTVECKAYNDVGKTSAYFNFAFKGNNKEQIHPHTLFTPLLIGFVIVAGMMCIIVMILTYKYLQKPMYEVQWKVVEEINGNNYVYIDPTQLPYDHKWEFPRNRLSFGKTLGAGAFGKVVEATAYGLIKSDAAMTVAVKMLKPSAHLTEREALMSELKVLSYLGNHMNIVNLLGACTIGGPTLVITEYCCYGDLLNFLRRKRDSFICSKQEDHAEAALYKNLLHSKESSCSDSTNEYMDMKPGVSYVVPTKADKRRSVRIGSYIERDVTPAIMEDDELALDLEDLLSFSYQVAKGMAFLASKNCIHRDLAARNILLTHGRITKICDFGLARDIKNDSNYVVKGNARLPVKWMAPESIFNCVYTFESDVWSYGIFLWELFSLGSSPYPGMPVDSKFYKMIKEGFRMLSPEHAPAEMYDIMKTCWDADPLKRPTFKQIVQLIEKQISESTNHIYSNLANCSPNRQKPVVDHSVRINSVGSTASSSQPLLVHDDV
Sequence of VEGFR2 (P35968 20-1356): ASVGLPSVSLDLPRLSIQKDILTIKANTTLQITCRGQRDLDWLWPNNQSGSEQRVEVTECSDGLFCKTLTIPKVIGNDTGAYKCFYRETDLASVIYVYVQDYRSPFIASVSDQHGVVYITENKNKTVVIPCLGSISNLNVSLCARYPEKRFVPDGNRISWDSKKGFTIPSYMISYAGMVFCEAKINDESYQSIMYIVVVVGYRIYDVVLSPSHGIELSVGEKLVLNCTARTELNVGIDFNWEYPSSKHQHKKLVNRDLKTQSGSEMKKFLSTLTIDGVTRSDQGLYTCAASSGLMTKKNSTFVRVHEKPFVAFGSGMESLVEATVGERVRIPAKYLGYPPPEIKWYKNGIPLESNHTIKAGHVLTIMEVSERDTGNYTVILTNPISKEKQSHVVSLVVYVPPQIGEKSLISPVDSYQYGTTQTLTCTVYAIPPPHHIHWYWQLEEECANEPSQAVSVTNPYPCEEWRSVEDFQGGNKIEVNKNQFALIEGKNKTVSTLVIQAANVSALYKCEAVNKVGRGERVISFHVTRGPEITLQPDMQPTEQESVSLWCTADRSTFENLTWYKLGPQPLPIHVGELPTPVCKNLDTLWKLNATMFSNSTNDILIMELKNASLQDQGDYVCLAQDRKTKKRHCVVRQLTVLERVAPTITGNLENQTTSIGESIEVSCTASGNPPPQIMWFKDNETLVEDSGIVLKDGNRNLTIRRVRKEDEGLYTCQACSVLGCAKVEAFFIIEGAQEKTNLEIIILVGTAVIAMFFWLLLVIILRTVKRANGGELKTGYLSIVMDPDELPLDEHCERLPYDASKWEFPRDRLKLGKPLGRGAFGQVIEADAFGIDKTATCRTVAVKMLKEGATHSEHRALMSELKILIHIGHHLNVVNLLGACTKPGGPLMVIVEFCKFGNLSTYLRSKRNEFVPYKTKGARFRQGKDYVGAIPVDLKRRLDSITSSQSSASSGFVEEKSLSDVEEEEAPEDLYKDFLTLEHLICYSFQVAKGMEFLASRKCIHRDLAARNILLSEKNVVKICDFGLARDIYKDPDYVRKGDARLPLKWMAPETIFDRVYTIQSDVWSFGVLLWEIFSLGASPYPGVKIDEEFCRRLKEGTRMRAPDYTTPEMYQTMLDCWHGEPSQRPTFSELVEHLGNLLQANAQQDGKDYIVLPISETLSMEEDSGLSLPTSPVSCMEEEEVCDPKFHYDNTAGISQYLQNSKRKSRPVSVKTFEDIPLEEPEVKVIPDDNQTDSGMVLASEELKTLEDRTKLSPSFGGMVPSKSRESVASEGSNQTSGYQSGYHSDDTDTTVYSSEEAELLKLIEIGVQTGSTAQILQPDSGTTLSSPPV
Sequence of PDGFR A (P16234 24-1089): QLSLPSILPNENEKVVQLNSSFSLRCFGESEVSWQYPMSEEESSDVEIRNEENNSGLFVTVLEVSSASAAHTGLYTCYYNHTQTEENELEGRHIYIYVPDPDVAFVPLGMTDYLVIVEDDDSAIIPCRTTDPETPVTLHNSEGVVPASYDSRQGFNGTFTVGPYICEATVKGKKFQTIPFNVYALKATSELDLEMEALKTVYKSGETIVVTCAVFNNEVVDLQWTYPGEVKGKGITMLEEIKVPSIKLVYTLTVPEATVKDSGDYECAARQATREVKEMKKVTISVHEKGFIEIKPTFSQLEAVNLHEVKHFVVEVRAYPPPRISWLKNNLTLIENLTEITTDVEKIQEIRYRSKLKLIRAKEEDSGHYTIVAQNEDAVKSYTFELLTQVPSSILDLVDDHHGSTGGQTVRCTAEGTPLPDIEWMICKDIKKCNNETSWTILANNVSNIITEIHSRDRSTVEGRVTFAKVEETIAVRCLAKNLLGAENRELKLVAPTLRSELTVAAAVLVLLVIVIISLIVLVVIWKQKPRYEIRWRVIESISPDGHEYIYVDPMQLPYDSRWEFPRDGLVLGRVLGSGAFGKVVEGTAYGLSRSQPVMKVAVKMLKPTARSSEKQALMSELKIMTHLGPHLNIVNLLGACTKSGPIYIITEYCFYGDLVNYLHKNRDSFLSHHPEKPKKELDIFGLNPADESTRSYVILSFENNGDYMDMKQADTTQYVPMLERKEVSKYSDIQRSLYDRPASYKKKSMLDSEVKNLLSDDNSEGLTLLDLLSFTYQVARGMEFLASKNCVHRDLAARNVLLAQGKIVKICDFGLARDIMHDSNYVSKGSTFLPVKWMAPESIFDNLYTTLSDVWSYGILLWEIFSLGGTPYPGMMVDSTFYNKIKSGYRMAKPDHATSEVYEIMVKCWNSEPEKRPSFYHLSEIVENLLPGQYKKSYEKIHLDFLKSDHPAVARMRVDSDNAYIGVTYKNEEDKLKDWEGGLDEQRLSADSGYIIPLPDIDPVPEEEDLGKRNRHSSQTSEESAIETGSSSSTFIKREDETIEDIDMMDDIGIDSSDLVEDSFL

CCc1cc(NC(=O)Nc2ccc(-c3cnc(Nc4cc(N5CCN(CCO)CC5)nc(C)n4)s3)cc2)no1 [Compound 1, 1-(5-Ethylisoxazol-3-yl)-3-(4-(2-((6-(4-(2-hydroxyethyl)piperazin-1-yl)-2-methylpyrimidin-4-yl)amino)thiazol-5-yl)phenyl)urea]
inhibition at 0.1 µM (KIT; [2]): 66%
IC50 (KIT; [3]): 41 nM
inhibition at 0.1 µM (VEGFR2; [2]): 95%
IC50 (VEGFR2; [3]): 19 nM
inhibition at 0.1 µM (PDGFR A; [2]): 95%
IC50 (PDGFR A; [3]): 9 nM
inhibition at 0.1 µM (RET): 96%
inhibition at 0.1 µM (ABL1): 81%
inhibition at 0.1 µM (SRC; [2]): 96%
IC50 (SRC; [3]): 6 nM
inhibition at 0.1 µM (ABL1 T315I): 65%
inhibition at 0.1 µM (PDGFR B; [2]): 82%
IC50 (PDGFR B; [3]): 19 nM
Mortality (nude mice n = 6) ([1]; PO 50 mg/kg once daily, 5 on 2 off × 2): 0/6 (50 mg/kg)
Tolerability ([1]; PO once daily, Compounds 1, 2, 3, 4, 6 at 50, 50, 100, 150 and 25 mg/kg): well tolerated
Day 18 TGI (Colo205 xenografts): >80%
GI50 (32D-ITD/F691L cells): 8.5 nM
GI50 (32D-ITD/D835F cells): 3.2 nM
GI50 (32D-ITD/D835F cells; Mus musculus, 32D, 72 h): < 6 nM
GI50 (32D-ITD/F691I cells): 45 nM
